In US10288604B2, “Method for imaging cell using fluorescence-labeled sugar derivative having coumarin derivative bound thereto, and imaging agent” (HIROSAKI UNIVERSITY, priority 2012, dated 2019):
Entries after “also recorded” stand apart in the source; their conditions may differ.

What was measured:
Assay type in all cases: cell-based
[1] = test system: tumor cell cluster composed of mouse insulinoma cells (MIN6); experiment: Imaging of tumor cell cluster composed of MIN6 cells (real time laser scanning confocal microscope); details: MIN6 cluster day 13; for fluorescence of cells in the cancer cell cluster 8 minutes after completion of administration: mixed solution 100 μM 2-PBLG, 100 μM 2-NBDLG, 20 μM 2-TRLG
Procedure: A culture solution prepared by suspending MIN6 cells at a proportion of 10×10^4 cells/mL was dropped in an amount of 10 μL on a glass cover slip, then, allowed to adhere to the glass surface, and 3 mL of the culture solution was added and cultured. The half quantity of the culture solution was changed every three days.
Cryopreserved MIN6 cells (cells donated from Professor Miyazaki Junichi of Osaka University and cultured 5 to 8 passages) were subjected to culture according to an ordinary method, and cultured 7 to 9 passages which were used in experiments. The half amount of the culture solution was changed every two days.
NaCl 120.0 mM, KCl 4.75 mM, KH2 PO4 1.19 mM, MgSO4.7H2O 1.19 mM, CaCl2.2H2O 1 mM, NaHCO3 5.02 mM, D-Glucose 5.6 mM, HEPES 10 mM (adjusted to pH 7.35 with 1M NaOH). For inhibiting entrance and elimination of fluorescently labeled glucose via a gap junction/hemichannel, 0.1 mM Carbenoxolone (SIGMA #C4790) was added. The HEPES solution for image acquisition was used as a solution for preparing a 2-PBLG solution and as a solution for preparing a 2-PBLG/2-TRLG solution and 2-PBLG/2-NBDLG/2-TRLG solution.
A glass cover slip wherein MIN6 cells had been cultured was transferred into a HEPES solution for image acquisition in a perfusion chamber set on a universal stage (Leica 11600234) on a confocal laser scanning microscope (TCS SP5 available from Leica), and adhered gently and tightly to the glass surface at the bottom of the chamber. […] Further, there is an excellent effect that in the space sandwiched by the metal guides, the perfusion solution flows smoothly as a laminar flow and quick solution exchange is possible.
A perfusion solution feeding system is equipped with one 60 mL cylinder for a control solution and five 10 mL cylinders for agent feeding, which can be switched as needed by a magnetic valve to allow perfusion. In experiments according to the present invention, a 5.6 mM glucose-containing HEPES solution for image acquisition was administered using the 60 mL cylinder and a mixed solution of 2-PBLG/2-NBDLG/2-TRLG, a mixed solution of 2-PBDG/2-TRLG, or a mixed solution of 2-PBLG/2-TRLG was administered using one of the five 10 mL cylinders. As described below, to avoid generation of bubbles in the perfusion chamber, both the solutions were heated beforehand, combined in one tube before being introduced into the perfusion chamber, the flow rate thereof being controlled by a flow rate controller, then, heated again by an inline heater and fed to the perfusion chamber on the confocal microscope.
A laser scan confocal microscope (manufactured by Leica, TCS-SP5 system, microscope body is DMI6000 CS trino electromotive inverted microscope) was used in conventional mode. Regarding laser used, a 405 nm diode laser was used for excitation of 2-PBLG and 2-PBDG, excitation of a mixed solution of 2-PBLG (or 2-PBDG) and 2-TRLG with a single light source, or live staining of nucleus by DAPI. The irradiation intensity was appropriately adjusted in accordance with the fluorescent pigment used so as to obtain sufficient observation intensity by an acoustic optical polarization element (Acoustic Optical Tunable Filter, AOTF). 2-NBDLG and 2-TRLG were excited by 488 nm Argon laser. The scan speed was 200 Hz or 400 Hz.
In fluorescence detection, a photomultiplier detector (PMT) 1 was used for detection of blue fluorescence by 2-PBDG or 2-PBLG and images were acquired in a wavelength detection range set at 415-580 nm in the case of detection of bicolor of 2-PBLG/2-TRLG and in a wavelength detection range set at 415-500 nm in the case of detection of tricolor of 2-PBLG/2-NBDLG/2-TRLG. For detection of green fluorescence by 2-NBDLG, PMT2 (called green channel, the same shall apply hereinafter) was used in a wavelength detection range of 500-580 nm. For detection of red fluorescence by 2-TRLG, PMT3 (called red channel, the same shall apply hereinafter) was used in a wavelength detection range of 580-740 nm. […]

[2] = test system: mouse insulinoma cells (MIN6); experiment: Uptake into MIN6 cells and influence of glucose transport inhibitors (fluorescent microplate reader)
Procedure: Cryopreserved MIN6 cells (cells donated from Professor Miyazaki Junichi of Osaka University and cultured 5 to 8 passages) were subjected to culture according to an ordinary method, and cultures at 7 to 9 passages were used in experiments.
NaCl 129.0 mM, KCl 4.75 mM, KH2 PO4 1.19 mM, MgSO4.7H2O 1.19 mM, CaCl2.2H2O 1.0 mM, NaHCO3 5.02 mM, D-Glucose 5.6 mM, HEPES 10 mM (pH was adjusted to 7.35 with 1M NaOH). For inhibiting entrance and elimination of a fluorescently labeled glucose via gap junction/hemichannel, 0.1 mM Carbenoxolone (SIGMA #C4790) was added. This KRB solution was used as a solution for preparing a 2-PBLG solution.
2-PBDG and 2-PBLG were charged into wells at the third column and the fifth column, respectively, using a 8-channel pipette. Before administration, the autofluorescence of each well was measured beforehand by a fluorescent micro plate reader (Flex Station, manufactured by Molecular Device). The measurement conditions include Bottom Read, Ex 401 nm, Em 453 nm, Cut off 420 nm, Averaging 3, and high sensitivity of Photomultiplier. In the measurement method, Well Scan Mode was used. In Well Scan Mode, the inside of one well was divided into 9 regions of interest (diameter: 1.5 mm) and measurement was performed each independently.
Next, in wells (3C, 3E, 3G) for measuring the effect of a glucose transport inhibitor phloretin, phloretin (final 150 μM) was administered beforehand from 5 minutes prior to administration of 2-PBDG, while KRB was added to other wells (3B, 3D, 3F). Similar operation was also conducted on the fifth column where 2-PBLG was to be administered. 2-PBDG and 2-PBLG were administrated at 37° C. for 10 minutes.
After completion of administration, a diluting operation of the fluorescence solution in the well using 300 μL of a KRB solution was repeated set times each for 30 seconds. The repetition time was determined so that the fluorescence intensity detected by wells of A-th row and H-th row set as a control group was equivalent to the fluorescence intensity of a blank well containing no cell, and complete washout was confirmed in every experiment. In the case of 2-PBDG and 2-PBLG, this washout process needed 8 minutes, thus, measurement of fluorescence after administration was carried out 9 minutes after.
According to this method, even if cells having undergone a loss of the plasma membrane contacted 2-PBDG and 2-PBLG and once took up these compounds into themselves, it is judged that contribution of the increase in the fluorescence intensity to the whole observation area was ignorable level since these compounds had already been washed out of the cells when performing the measurement. This was supported by a pharmacological inhibition experiment separately in which the increase in the fluorescence intensity almost completely disappeared in the presence of an inhibitor. The above-described method was conducted in the same manner also when other inhibitor, for example, cytochalasin B (10 μM) was added.
The change of fluorescence intensity by administration of a D-glucose derivative (2-PBDG), an L-glucose derivative (2-PBLG) and PB—NH2 prepared by amidating Pacific Blue (PB) chromophore group to MIN6 cells on day of 10 of culture and the effect by a glucose transport inhibitor were confirmed in the same manner as in Example 4. PB—NH2 has the following structure (Ex max. 402 nm, Em max. 451 nm).
An experiment was conducted in the same manner as in Example 4.
The experiment was carried out 3 times independently, and the same results were obtained in all cases. In the experiment of administration of 2-PBDM, excitation occurred at a maximum excitation light wavelength of 404 nm and fluorescence was acquired at a maximum emission wavelength of 453 nm.

[3] = test system: neurons acutely dissociated from mouse midbrain substantia nigra pars reticulata; experiment: Application of fluorescent sugar derivatives to acutely dissociated normal neurons (confocal imaging of uptake); details: for increase in fluorescence intensity in the neuron before and after administration: 3 minutes, comparative compounds
Procedure: This was conducted according to a method described in WO 2010/16587.
Living neurons were acutely dissociated from mouse midbrain substantia nigra pars reticulata, and to which a mixed solution containing 100 μM of 2-PBDG and 20 μM of 2-TRLG was administered at 37° C. for 5 minutes. FIGS. 1A to C represent confocal microscopic images taken immediately before this. A is a fluorescence image in blue wavelength region (Blue channel, wavelength range: 415-580 nm). The position of cells is recognized by autofluorescence. The fluorescence signal intensity is represented by pseudocolor. B is a fluorescence image in red wavelength region (Red channel, 580-740 nm). A and B were obtained both by simultaneous excitation using 405 nm Blue diode laser at an intensity of 60%, wherein photomultipliers (PMT) 1 and 2 were used respectively, and the detection sensitivity of PMT2 was raised higher than PMT1 so that the presence or absence of invasion of 2-TRLG can be detected in a sensitive manner. C is a view in which the bright field image is overlaid on the fluorescence images of A and B.
An experiment was conducted in the same manner as in Example 2.
FIGS. 2A to C represent confocal microscopic images immediately before administration of a mixed solution containing 100 μM of 2-PBLG and 20 μM of 2-TRLG at 37° C. to acutely dissociated neurons of mouse midbrain substantia nigra pars reticulata for 5 minutes.
FIG. 3 represents confocal microscopic images before and after administration of a mixed solution containing 100 μM of 2-HCDG and 20 μM of 2-TRLG at 37° C. for 3 minutes to neurons acutely dissociated from mouse midbrain substantia nigra pars reticulata. A and B are fluorescence images acquired before administration in Blue channel (415-580 nm) and Red channel (580-740 nm), respectively. The excitation wavelength is 405 nm. C is an image of differential interference (Differential Interference contrast, DIC). D is an overlay of the above-described images. E to H are the same as A to D, excepting that E to H are images acquired 4 minutes after initiation of washout of the fluorescence tracer solution after administration of the 2-HCDG+2-TRLG fluorescence tracer solution at 37° C. for 3 minutes. […] Since invasion of 2-TRLG into a cell is not observed, the plasma membrane of the neuron is thought to be maintained intactly.
Since the optimal excitation wavelength was as very low as 320 nm in this experiment, an image was acquired by Retiga-2000R CCD camera manufactured by Q-imaging via a custom-order filter constituted of an excitation filter (320 nm) (half width: 40 nm), a fluorescence filter (435 nm) (half width: 40 nm) and a dichroic mirror (409 nm), by a xenon lamp, using Nikon Ti-E real time deconvolution microscope.

[4] = 100 μM with 20 μM 2-TRLG, 37° C.
[5] = 100 μM derivative, phloretin 150 μM, MIN6 day 10

Molecule: O=[N+]([O-])c1ccc(NC2C(O)OC(CO)[C@H](O)C2O)c2nonc12 (stereo partly drawn) [2-NBDLG, 2-[N-(7-nitrobenz-2-oxa-1,3-diazol-4-yl)amino]-2-deoxy-L-glucose, reference compound]
- fluorescence of cells in the cancer cell cluster 8 minutes after completion of administration [1]: difficult to specify these cells only by the fluorescence imaging by 2-NBDLG

Molecule: O=C(NC1C(O)OC(CO)[C@@H](O)C1O)c1cc2cc(F)c(O)c(F)c2oc1=O (stereo partly drawn) [2-PBDG, 2-Deoxy-2-((6,8-difluoro-7-hydroxycoumarin-3-yl)carboxamido)-D-glucose]
- decreased value of fluorescence intensity owing to phloretin (average) ([2]; 100 μM derivative, 150 μM phloretin, MIN6 day 10, increase without phloretin as reference): 22.4%
- effect of cytochalasin B on increase in fluorescence intensity ([2]; 100 μM derivative, cytochalasin B 10 μM, MIN6 day 10): did not show a significant inhibitory effect
- fluorescence intensity after administration as compared with that before administration ([2]; 100 μM, MIN6 on day 10 of culture, Ex 401 nm, Em 453 nm): increases significantly
- intracellular fluorescence intensity in Blue channel as compared with that before administration ([3]; 100 μM with 20 μM 2-TRLG, 37° C., 5 minutes, image 4 minutes after initiation of washout): increased excepting nucleus
- persistence of intracellular blue fluorescence after washout ([3]; images 8 and 20 minutes after initiation of washout): not easily diminished

Molecule: COc1ccc2c(CC(=O)N[C@@H](C=O)[C@@H](O)[C@H](O)[C@H](O)CO)cc(=O)oc2c1 [2-MCDG, 2-Deoxy-2-(2-(7-methoxycoumarin-4-yl)acetamido)-D-glucose]
- increase in fluorescence intensity in the neuron before and after administration [3, 4]: not recognized

Molecule: O=C(NC1C(O)OC(CO)[C@@H](O)C1O)c1cc2cc(F)c(O)c(F)c2oc1=O (stereo partly drawn) [2-PBDM, 2-Deoxy-2-((6,8-difluoro-7-hydroxycoumarin-3-yl)carboxamido)-D-mannose]
- effect of phloretin on increase in fluorescence intensity (in words) [2, 5]: slight but significant inhibitory effect

Molecule: O=C(NC1C(O)OC(CO)[C@@H](O)C1O)c1cc2ccc(O)cc2oc1=O (stereo partly drawn) [2-HCDG, 2-Deoxy-2-((7-hydroxycoumarin-3-yl)carboxamido)-D-glucose]
- increase in fluorescence intensity in the neuron before and after administration [3, 4]: no increase in the fluorescence intensity is detected

Molecule: NC(=O)c1cc2cc(F)c(O)c(F)c2oc1=O [PB—NH2, reference compound]
- effect of phloretin on increase in fluorescence intensity (in words) [2, 5]: remarkably promoted
- increase in the fluorescence with phloretin compared to when only PB—NH2 is administrated ([2]; 100 μM, phloretin 150 μM, n=3 experiments): 384.1±24.2%
- increase in fluorescence intensity compared with that of 2-PBLG ([2]; 100 μM, same culture plate, MIN6 day 10): significantly larger

Molecule: 2-TexasRed-2-amino-2-deoxy-L-glucose [2-TRLG]
- fluorescence of cells in the cell cluster 2 minutes after initiation of washout ([1]; mixed solution 100 μM 2-PBLG and 20 μM 2-TRLG, administered 5 minutes): invades into the cell having increased membrane permeability mainly present at the center of a cell cluster
- fluorescence of cells in the cancer cell cluster 8 minutes after completion of administration [1]: very weak red fluorescence
- fluorescence intensity in Red channel / invasion of 2-TRLG into a cell ([3]; 20 μM 2-TRLG co-administered with 100 μM blue derivative, 37° C.): did not increase; also recorded: scarcely increased; also recorded: not observed
